Measured values from patent US20250263412A1, “NON-HYDROXAMATE HDAC6 INHIBITORS AND RELATED METHODS OF USE” (The Regents of the University of Michigan, priority 2021, published 2025).

Tests used:
wild-type DIO mice = test: Diet-induced obesity study, daily intraperitoneal injections; format: in vivo, mouse
Experimental: (§1) Animals were housed at a 12 hours dark/light cycle, temperature and humidity controlled rooms. Mice were purchased from the Jackson LABoratory, except the HDAC6 global knockout (KO) mice, which were provided by Dr. Timothy A. Mckinsey (University of Colorado Anschutz Medical Campus, Aurora, CO, USA.). Mice were fed either regular chow or high fat diet (60 kcal % fat, Research Diets) to induce obesity (diet-induced obesity) and had free access to food and water unless specified. Body composition was analyzed with Bruker's minispec LF50 Body Composition Analyzer. Blood glucose was measured from tail vein by Contour blood glucose monitor system (Bayer). TubA (25 mg/kg body weight) or SE-7552 (50 mg/kg body weight) were administered within 1 hr before dark cycle daily by intraperitoneal (ip.) injections. For intraperitoneal injections, drugs or vehicle was injected at 25 uL volumes per animal. Mice and their food were measured daily or weekly to track body weight and food intake. Hematoxylin and eosin (H&E) staining of liver sections of diet-induced obese mice were done after one month of vehicle or TubA injections.

db/db mice = test: Body weight study in db/db mice; format: in vivo, mouse; settings: SE-7552 50 mg/kg, i.p., daily
Experimental: as §1

[1] = test system: HDAC6 versus all other known HDAC isozymes; settings: cited from earlier work

| Compound | diet-induced obesity (FIG. 2) (wild-type DIO mice; Tubastatin 25 mg/kg, daily i.p.) | obesity (body weight change, FIG. 1e) (wild-type DIO mice; SE-7552 50 mg/kg, i.p., daily) | weight loss (body weight change, FIG. 1f) (db/db mice) | selectivity versus all other known HDAC isozymes [1] |
| --- | --- | --- | --- | --- |
| CN1CCc2c(c3ccccc3n2Cc2ccc(C(=O)NO)cc2)C1 [Tubastatin A] | Reverses Diet-Induced Obesity | – | – | – |
| CC(Nc1ncc(-c2nnc(C(F)F)o2)cn1)c1ccc(F)cc1 (stereo not shown) [SE7552] | – | effectively reduces obesity | ineffective at inducing weight loss | About 1000 fold |
